Read-outs that look alike come from different tables or passages of the source. One block for each molecule: values may come before it.
How the values were obtained:
[1] = molecular target: GCGR (Homo sapiens, UniProt P47871); experiment: cAMP receptor activation assay, human GCGR cloned into CHO cells (DiscoverX LeadHunter / cAMP Hunter); format: cell-based; parameters: host or cells: CHO-K1
[2] = molecular target: T1, human GLP-1R (Homo sapiens, UniProt P43220); experiment: cAMP receptor activation assay, human GLP-1R cloned into CHO cells (DiscoverX LeadHunter / cAMP Hunter); format: cell-based
T1 construct: host or cells: CHO-K1
T1 sequence (P43220 24-463): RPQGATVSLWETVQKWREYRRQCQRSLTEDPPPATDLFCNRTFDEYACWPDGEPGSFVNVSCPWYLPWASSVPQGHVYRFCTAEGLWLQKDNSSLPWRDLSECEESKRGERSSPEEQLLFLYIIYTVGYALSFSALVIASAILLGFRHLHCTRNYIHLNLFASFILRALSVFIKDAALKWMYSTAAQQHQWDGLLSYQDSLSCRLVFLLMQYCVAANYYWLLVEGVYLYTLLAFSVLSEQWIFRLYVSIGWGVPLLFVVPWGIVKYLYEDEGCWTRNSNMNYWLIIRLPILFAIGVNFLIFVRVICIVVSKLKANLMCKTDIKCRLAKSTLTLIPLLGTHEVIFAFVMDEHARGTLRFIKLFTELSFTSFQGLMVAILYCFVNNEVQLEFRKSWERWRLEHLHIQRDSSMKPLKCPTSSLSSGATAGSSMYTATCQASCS

GCGR, sequence (P47871 26-477): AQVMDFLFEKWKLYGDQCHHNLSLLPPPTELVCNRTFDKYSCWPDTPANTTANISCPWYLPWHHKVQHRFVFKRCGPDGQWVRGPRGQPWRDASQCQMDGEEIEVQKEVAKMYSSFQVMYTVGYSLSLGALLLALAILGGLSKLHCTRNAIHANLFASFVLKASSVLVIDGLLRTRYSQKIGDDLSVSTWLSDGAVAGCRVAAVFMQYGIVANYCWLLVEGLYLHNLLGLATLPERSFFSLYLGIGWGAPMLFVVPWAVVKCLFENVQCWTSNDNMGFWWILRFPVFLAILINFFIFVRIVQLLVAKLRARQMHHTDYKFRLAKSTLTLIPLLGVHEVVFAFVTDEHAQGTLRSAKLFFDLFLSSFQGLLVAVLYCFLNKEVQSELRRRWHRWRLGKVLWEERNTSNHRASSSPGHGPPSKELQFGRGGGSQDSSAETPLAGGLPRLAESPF

EC50 ([1]; cAMP, CHO cells, 0.1% OVA containing buffers, read-out: EC50 hGCGR): 65 pM | EC50 ([2]; cAMP, CHO cells, 0.1% OVA containing buffers, read-out: pEC50 (SE) hu GLP-1 (converted)): 38 pM
Molecule: CC[C@H](C)[C@H](NC(=O)[C@H](Cc1ccccc1)NC(=O)[C@H](CCC(=O)O)NC(=O)[C@@H]1CCCCNC(=O)CC[C@H](NC(=O)[C@H](CC(=O)O)NC(=O)[C@H](CC(C)C)NC(=O)[C@H](Cc2ccc(O)cc2)NC(=O)[C@H](CCCCN)NC(=O)[C@H](CO)NC(=O)[C@H](Cc2ccc(O)cc2)NC(=O)[C@H](CC(=O)O)NC(=O)[C@H](CO)NC(=O)[C@@H](NC(=O)[C@H](Cc2ccccc2)NC(=O)[C@@H](NC(=O)CNC(=O)[C@H](CCC(N)=O)NC(=O)C(C)(C)NC(=O)[C@@H](N)Cc2c[nH]cn2)[C@@H](C)O)[C@@H](C)O)C(=O)N[C@@H](CCC(N)=O)C(=O)N[C@@H](C)C(=O)N[C@@H](C)C(=O)N1)C(=O)N[C@@H](CCCCNC(=O)[C@H]1O[C@@H](OCCCCCCCCCCCCCCCC(=O)O)[C@H](O)[C@@H](O)[C@@H]1O)C(=O)N[C@@H](Cc1c[nH]c2ccccc12)C(=O)N[C@@H](CC(C)C)C(=O)N[C@@H](CC(C)C)C(=O)N[C@@H](CCC(N)=O)C(=O)N[C@H](C(N)=O)[C@@H](C)O [analogue 15]

EC50 ([1]; EC50 cAMP glucagon R (pM) 0.1% BSA, Table 5, 0.1% BSA): 461 pM | EC50 ([2]; EC50 cAMP GLP-1 R (pM) 0.1% BSA, Table 5, 0.1% BSA): 162 pM
Molecule: CC[C@H](C)[C@H](NC(=O)[C@H](Cc1ccccc1)NC(=O)[C@H](CCC(=O)O)NC(=O)[C@@H]1CCCCNC(=O)CC[C@H](NC(=O)[C@H](CC(=O)O)NC(=O)[C@H](CC(C)C)NC(=O)[C@H](Cc2ccc(O)cc2)NC(=O)[C@H](CCCCN)NC(=O)[C@H](CO)NC(=O)[C@H](Cc2ccc(O)cc2)NC(=O)[C@H](CC(=O)O)NC(=O)[C@H](CO)NC(=O)[C@@H](NC(=O)[C@H](Cc2ccccc2)NC(=O)[C@@H](NC(=O)CNC(=O)[C@H](CCC(N)=O)NC(=O)C(C)(C)NC(=O)[C@@H](N)Cc2c[nH]cn2)[C@@H](C)O)[C@@H](C)O)C(=O)N[C@@H](CCC(N)=O)C(=O)N[C@@H](C)C(=O)N[C@@H](C)C(=O)N1)C(=O)N[C@@H](CCCCNC(=O)[C@H]1O[C@@H](OCCCCCCCCCCCCCCCC(=O)O)[C@H](O)[C@@H](O)[C@@H]1O)C(=O)N[C@@H](Cc1c[nH]c2ccccc12)C(=O)N[C@@H](CC(C)C)C(=O)N[C@@H](CC(C)C)C(=O)N[C@@H](CCC(N)=O)C(=O)N[C@H](C(N)=O)[C@@H](C)O [EU-A1871]

EC50 ([1]; cAMP, CHO cells, 0.1% BSA containing buffers, read-out: pEC50 (SE) huGCGR (converted)): 28.8 pM
Molecule: CCCCCCCCCCCCO[C@@H]1O[C@H](C(=O)NCCCC[C@H](NC(=O)[C@@H](NC(=O)[C@H](Cc2ccccc2)NC(=O)[C@H](CCC(=O)O)NC(=O)[C@@H]2CCCCNC(=O)CC[C@H](NC(=O)[C@H](CC(=O)O)NC(=O)[C@H](CC(C)C)NC(=O)[C@H](Cc3ccc(O)cc3)NC(=O)[C@H](CCCCN)NC(=O)[C@H](CO)NC(=O)[C@H](Cc3ccc(O)cc3)NC(=O)[C@H](CC(=O)O)NC(=O)[C@H](CO)NC(=O)[C@@H](NC(=O)[C@H](Cc3ccccc3)NC(=O)[C@@H](NC(=O)CNC(=O)[C@H](CCC(N)=O)NC(=O)C(C)(C)NC(=O)[C@@H](N)Cc3c[nH]cn3)[C@@H](C)O)[C@@H](C)O)C(=O)N[C@@H](CCC(N)=O)C(=O)N[C@@H](C)C(=O)N[C@@H](C)C(=O)N2)[C@@H](C)CC)C(=O)N[C@@H](Cc2c[nH]c3ccccc23)C(=O)N[C@@H](CC(C)C)C(=O)N[C@@H](CC(C)C)C(=O)N[C@@H](CCC(N)=O)C(=O)N[C@H](C(N)=O)[C@@H](C)O)[C@@H](O)[C@H](O)[C@H]1O [analogue 3]

Molecule: exendin-4 [reference compound]
Fold Improvement GLP-1R [2]: 1 | fold improvement on replacing BSA (0.1%) with OVA (0.1%) [2]: negligible

Source: patent US20210290732A1, “GLP-1R and GCGR Agonists, Formulations, and Methods of Use” (Spitfire Pharma LLC, priority 2020, published 2021)
